Earlier results, collected in patent publication US20040082521A1, “Novel formulations of digitalis glycosides for treating cell-proliferative and other diseases” (Azaya Therapeutics Inc., priority 2002, published 2004).

What was measured:
[1] = test system: FGF-2 release from PC3 cells; conditions: 0.1 ng/mL
[2] = test system: FGF-2 release from DU145 cells; conditions: 0.1 ng/mL
[3] = test system: various cancer cell lines
[4] = test system: human cancer cells
[5] = test system: androgen-independent human prostate cancer cell lines; conditions: for apoptosis: in vitro
[6] = test system: NF-κB
[7] = test system: AP-1
[8] = test system: c-Jun NH2terminal kinase
[9] = test system: human malignant cell lines; conditions: for growth and apoptosis: non-toxic concentrations

CO[C@H]1C[C@H](O[C@H]2CC[C@@]3(C)[C@H](CC[C@@H]4[C@@H]3CC[C@]3(C)[C@@H](C5=CC(=O)OC5)[C@@H](OC(C)=O)C[C@]43O)C2)O[C@@H](C)[C@@H]1O [Oleandrin, 16b-acetoxy-3b-[(2,6-dideoxy-3-0-methyl-a2-L-arabino-hexopyranosyl)oxy]14-hydroxy-5β, 14β-card-20(22)-enolide]
inhibition of FGF-2 release [1]: 45.7% | inhibition of FGF-2 release [2]: 49.9% | anti-cancer activities [3]: significant anti-cancer activities | cell-killing potency ([4]; comparison Oleandrin vs water extract): greater than that of the water extract | cell killing ([4]; human cancer cells): able to induce cell killing | caspase activation ([5]; cleavage of poly (ADP-ribose) polymerase, hydrolysis of DEVD-pNA): promoted caspase activation | apoptosis [5]: induce apoptosis | TNF-induced activation of NF-κB ([6]; TNF-induced): blocked | NF-κB activation induced by phorbol ester and lipopolysaccharide ([6]; phorbol ester and lipopolysaccharide): blocked | NF-κB-dependent reporter gene transcription activated by TNF ([6]; reporter gene): suppressed | AP-1 activation induced by TNF and other agents [7]: blocked | TNF-induced activation of c-Jun NH2terminal kinase [8]: inhibited | elimination from the body (in vivo): one to two | distribution in the body (when ingested): widely distributed in the body

C[C@@H]1O[C@@H](O[C@H]2C[C@@H](O)[C@]3(CO)[C@H]4[C@H](O)C[C@]5(C)[C@@H](C6=CC(=O)OC6)CC[C@]5(O)[C@@H]4CC[C@]3(O)C2)[C@H](O)[C@H](O)[C@H]1O [Ouabain, reference compound]
apoptosis [5]: induce apoptosis

CO[C@@H]1C[C@H](O[C@H]2CC[C@@]3(C)[C@H](CC[C@@]45O[C@@]46CC[C@H](C4=CC(=O)OC4)[C@@]6(C)CC[C@H]35)C2)O[C@H](C)[C@@H]1O [adynerin]
anti-cancer activities [3]: significant anti-cancer activities

C[C@H]1O[C@@H](O[C@H]2[C@@H](O)C[C@H](O[C@H]3[C@@H](O)C[C@H](O[C@H]4CC[C@@]5(C)[C@H](CC[C@@H]6[C@@H]5CC[C@]5(C)[C@@H](C7=CC(=O)OC7)CC[C@]65O)C4)O[C@@H]3C)O[C@@H]2C)C[C@H](O)[C@@H]1O [digitoxin]
apoptosis-inducing effect ([9]; in vitro, digitoxin vs digoxin): more potent for digitoxin than for digoxin | growth and apoptosis [9]: inhibits growth and induce apoptosis

C[C@H]1O[C@@H](O[C@H]2[C@@H](O)C[C@H](O[C@H]3[C@@H](O)C[C@H](O[C@H]4CC[C@@]5(C)[C@H](CC[C@@H]6[C@@H]5C[C@@H](O)[C@]5(C)[C@@H](C7=CC(=O)OC7)CC[C@]65O)C4)O[C@@H]3C)O[C@@H]2C)C[C@H](O)[C@@H]1O [digoxin, reference compound]
growth and apoptosis [9]: inhibits growth and induce apoptosis | apoptosis [5]: induce apoptosis

C[C@H]1[C@H](C)CC[C@]2(C(=O)O)CC[C@]3(C)C(=CC[C@@H]4[C@@]5(C)CC[C@H](O)C(C)(C)[C@@H]5CC[C@]43C)[C@H]12 [ursolic acid]
anti-cancer activities [3]: significant anti-cancer activities
